Reference: the supplement of paper PMC8633005

Tests used:
Assay in all cases: drug sensitivity score (DSS) (DSS (unitless, 0-50 scale)); higher = more sensitive (stronger viability inhibition); extreme values may be limits of the assay
Settings in all cases: 72 h; culture: 2D
FM-MEL-6 = system: FM-MEL-6
How it was run: (§1)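 Patient-derived melanoma cultures and melanoma cell lines were grown in 2D in 384-well plates with a 527-compound oncology library at five concentrations spanning a 10,000-fold range, with 1000–1500 cells per well for the cultures. CellTiter-Glo luminescence gave viability after 72 h at 37 °C. The drug sensitivity score is a modified area-under-curve measure derived from dose-response curves fitted in the in-house Breeze software.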

SK-MEL-28 = system: SK-MEL-28
How it was run: as §1

FM-MEL-3 = system: FM-MEL-3
How it was run: as §1

SK-MEL-2 = system: SK-MEL-2
How it was run: as §1

FM-MEL-2 = system: FM-MEL-2
How it was run: as §1

WM165 = system: WM165
How it was run: as §1

Bowes = system: Bowes
How it was run: as §1

WM852 = system: WM852
How it was run: as §1

| Structure (SMILES) | drug sensitivity score (FM-MEL-6) | drug sensitivity score (SK-MEL-28) | drug sensitivity score (FM-MEL-3) | drug sensitivity score (SK-MEL-2) | drug sensitivity score (FM-MEL-2) | drug sensitivity score (WM165) | drug sensitivity score (Bowes) | drug sensitivity score (WM852) |
| --- | --- | --- | --- | --- | --- | --- | --- | --- |
| CCS(=O)(=O)Nc1ccc(Oc2ccc(F)cc2F)c(-c2cn(C)c(=O)c3[nH]ccc23)c1 [Mivebresib] | 15.8 | 12.2 | 16.2 | 9 | 16.3 | 24.2 | 17 | 0.4 |
| CCCC(CCC)C(=O)O [Valproic acid] | 0 | 0 | 0.3 | 0 | 0.2 | 0 | 0 | 0 |
| CN(C)C1CCN(C(=O)c2ccc(NC(=O)Nc3ccc(-c4nc(N5CCOCC5)nc(N5CCOCC5)n4)cc3)cc2)CC1 [Gedatolisib] | 9.4 | 9.5 | 9.8 | 10.6 | 6.1 | 14.8 | 12.6 | 7.5 |
| CC(=O)c1cnc2ccc(-c3cc(Cl)c(O)c(Cl)c3)nc2c1N[C@H]1CC[C@H](CN(C)C)CC1 [OTS167] | 8 | 14.3 | 19 | 11.4 | 9.5 | 17.4 | 15.4 | 10.5 |
| CC[C@@](C)(Nc1ccnc(-c2c[nH]c3ncccc23)n1)C(=O)NCC(F)(F)F [Decernotinib] | 0 | 0.3 | 0 | 0 | 0.2 | 0 | 0 | 0 |
| Nc1ncn([C@H]2C[C@H](O)[C@@H](CO)O2)c(=O)n1 [Decitabine] | 3.4 | 0 | 0 | 0 | 0 | 0.7 | 0 | 0 |
| CC(=O)c1cc2c(o1)C(=O)c1ccccc1C2=O [Napabucasin] | 22.1 | 16.8 | 19.6 | 15.7 | 4.2 | 27 | 20.5 | 19.1 |
| COCCNCc1ccc(-c2cc3nccc(Oc4ccc(NC(=O)C5(C(=O)Nc6ccc(F)cc6)CC5)cc4F)c3s2)nc1 [Sitravatinib] | 2.4 | 2.3 | 2.6 | 0 | 2 | 2.1 | 0.6 | 1.9 |
| CC[C@H](Nc1ncnc2[nH]cnc12)c1nc2cccc(F)c2c(=O)n1-c1ccccc1 [Idelalisib] | 1.8 | 4.1 | 1 | 0 | 3.1 | 0.7 | 0.2 | 0.4 |
| C[C@]1(O)C[C@@H](c2nc(-c3ccc4ccc(-c5ccccc5)nc4c3)c3c(N)nccn32)C1 [Linsitinib] | 0.9 | 0 | 4.8 | 0 | 3.6 | 1.3 | 0 | 1 |
| COc1cc2ncnc(Oc3cccc(NC(=O)Nc4cc(C(C)(C)C(F)(F)F)on4)c3)c2cc1OC | 2 | 0 | 15 | 0 | 7.6 | 0 | 0 | 3.3 |
| CN(C)CC#Cc1ccc(OCCCc2sc(N3CCc4cccc(C(=O)Nc5nc6ccccc6s5)c4C3)nc2C(=O)O)c(F)c1 | 0.7 | 0 | 16.7 | 0 | 4.6 | 0.2 | 0.5 | 0 |
| CC(O)(CS(=O)(=O)c1ccc(F)cc1)C(=O)Nc1ccc(C#N)c(C(F)(F)F)c1 (stereo not drawn) [Bicalutamide] | 0 | 0.1 | 1.7 | 0 | 0 | 0 | 0 | 0.8 |
| CC1(C)CCC(c2ccc(Cl)cc2)=C(CN2CCN(c3ccc(C(=O)NS(=O)(=O)c4ccc(N[C@H](CCN5CCOCC5)CSc5ccccc5)c(S(=O)(=O)C(F)(F)F)c4)cc3)CC2)C1 [Navitoclax] | 0 | 0 | 12 | 0 | 4 | 0 | 0 | 0 |
| NS(=O)(=O)NCCNc1nonc1/C(=N/O)Nc1ccc(F)c(Br)c1 [Epacadostat] | 0.5 | 0 | 1 | 0 | 0.5 | 0 | 0 | 0.7 |
| O=C(O)c1ccc(-c2c[nH]c3ncc(-c4ccccc4)cc23)cc1C1CCCC1 | 0 | 0.7 | 0 | 0 | 0 | 1.2 | 0 | 0 |
| CC1(COc2ccc3c(c2)ncn3-c2ccc3cccc(N4CCC(N)CC4)c3n2)COC1 [Crenolanib] | 5.4 | 6.8 | 1.5 | 5.4 | 5 | 7 | 4.6 | 6.6 |
| C1=N/C2=N/c3ccc(OCCN4CCCC4)c(c3)COC/C=C/COCc3cccc(c3)C(=C1)N2 [Pacritinib] | 7.7 | 9.8 | 9.5 | 5.4 | 9.8 | 9.8 | 16.8 | 9.1 |
| COC[C@H](NC(=O)c1cnc(C)s1)C(=O)N[C@@H](COC)C(=O)N[C@@H](Cc1ccccc1)C(=O)[C@@]1(C)CO1 [Oprozomib] | 19.4 | 17 | 20.3 | 15.2 | 9.3 | 20 | 20.3 | 16.9 |
| C=CC(=O)Nc1cc2c(Nc3ccc(F)c(Cl)c3)ncnc2cc1OCCCN1CCOCC1 [Canertinib] | 6.3 | 3.5 | 9.1 | 4.9 | 8.4 | 7.5 | 8.7 | 6.5 |
| CC(C)(C)Cn1c(N)nc2ccc(-c3[nH]c(C(C)(C)C)nc3-c3ccc(F)cc3)nc21 [Ralimetinib] | 0 | 2 | 6.1 | 0 | 5.4 | 2.9 | 0 | 1 |

| Structure (SMILES) | drug sensitivity score (FM-MEL-6) | drug sensitivity score (SK-MEL-28) | drug sensitivity score (FM-MEL-3) | drug sensitivity score (SK-MEL-2) | drug sensitivity score (FM-MEL-2) | drug sensitivity score (WM165) | drug sensitivity score (Bowes) | drug sensitivity score (WM852) |
| --- | --- | --- | --- | --- | --- | --- | --- | --- |
| CN[C@@H]1C[C@H]2O[C@@](C)([C@@H]1OC)n1c3ccccc3c3c4c(c5c6ccccc6n2c5c31)C(=O)N[C@H]4O [UCN-01] | 14.5 | 13.4 | 24.7 | 16.2 | 13.5 | 23.5 | 17.5 | 19.9 |
| c1cn2cc(-c3ccc4cn[nH]c4c3)nc(Nc3ccc(N4CCOCC4)cc3)c2n1 [Entospletinib] | 0 | 0 | 0 | 0 | 6.7 | 0 | 0 | 0 |
| CC(=O)O[C@@]12CO[C@@H]1C[C@H](O)[C@@]1(C)C(=O)[C@H](O)C3=C(C)[C@@H](OC(=O)[C@H](O)[C@@H](NC(=O)OC(C)(C)C)c4ccccc4)C[C@@](O)([C@@H](OC(=O)c4ccccc4)[C@H]21)C3(C)C [Docetaxel] | 14.7 | 12.7 | 10.9 | 16.4 | 6.5 | 25.1 | 28.8 | 20.7 |
| Cc1[nH]c2ccccc2c1CCNCc1ccc(/C=C/C(=O)NO)cc1 [Panobinostat] | 12.1 | 12.9 | 14.9 | 16.8 | 16.2 | 19.6 | 10.1 | 9.3 |
| CCCN(CCC)C(=O)C1=Cc2ccc(-c3ccc(C(=O)N4CCCC4)cc3)cc2N=C(N)C1 [Motolimod] | 1.3 | 0 | 1.1 | 0 | 0.5 | 0 | 1.6 | 2.8 |
| O=C(/C=C\n1cnc(-c2cc(C(F)(F)F)cc(C(F)(F)F)c2)n1)NNc1cnccn1 [Selinexor] | 8.4 | 9.2 | 11.5 | 13.3 | 9.6 | 18.7 | 12.4 | 8.2 |
| CC(C)[C@H](C(=O)Nc1ccc(C(=O)NO)cc1)c1ccccc1 [AR-42] | 11.6 | 10.3 | 11.8 | 12.7 | 9.8 | 14 | 6 | 3.9 |
| CC(C)(C)c1nc(-c2cccc(NS(=O)(=O)c3c(F)cccc3F)c2F)c(-c2ccnc(N)n2)s1 [Dabrafenib] | 0 | 20.5 | 2.7 | 0.9 | 1.5 | 18.1 | 1.1 | 1.1 |
| O=C(/C=C\n1cnc(-c2cc(C(F)(F)F)cc(C(F)(F)F)c2)n1)NNc1ccccn1 [Verdinexor] | 4 | 5 | 5.3 | 2.3 | 4.2 | 9.3 | 4.1 | 2 |
| Cc1ccc(C(=O)Nc2ccc(Oc3cc4cnn(C)c4cc3-c3cn[nH]c3)c(F)c2)c(=O)n1-c1ccc(F)cc1 [Merestinib] | 0 | 0.4 | 0 | 0 | 0 | 0 | 0 | 2.2 |
| CNC(=O)c1ccc2cc([C@@]3(O)CCn4cncc43)ccc2c1 [Orteronel] | 0 | 0 | 0 | 0 | 0 | 0 | 0 | 0 |
| Cc1cc(Nc2ncnc3ccc(NC4=NC(C)(C)CO4)cc23)ccc1Oc1ccn2ncnc2c1 [Tucatinib] | 0 | 0 | 0 | 0 | 0.4 | 0 | 0 | 0 |
| CC[C@@H]1C(=O)N(C)c2cnc(Nc3ccc(C(=O)N[C@H]4CC[C@H](N5CCN(CC6CC6)CC5)CC4)cc3OC)nc2N1C(C)C [Volasertib] | 3.7 | 3.1 | 6.5 | 8.1 | 2.6 | 13.3 | 17.5 | 14.9 |
| O=C(c1cc(Cc2n[nH]c(=O)c3ccccc23)ccc1F)N1CCN(C(=O)C2CC2)CC1 [Olaparib] | 0 | 1 | 0 | 0 | 0 | 7.5 | 0.4 | 3.9 |
| CCC1=C[C@@H]2CN(C1)Cc1c([nH]c3ccccc13)[C@@](C(=O)OC)(c1cc3c(cc1OC)N(C)[C@H]1[C@@](O)(C(=O)OC)[C@H](OC(C)=O)[C@]4(CC)C=CCN5CC[C@]31[C@@H]54)C2 [Vinorelbine] | 23.3 | 11 | 12.5 | 25.6 | 7.7 | 28.8 | 31.6 | 23.1 |
| CC(C)(C)C[C@@H]1N[C@@H](C(=O)N[C@H]2CC[C@H](O)CC2)[C@H](c2cccc(Cl)c2F)[C@]12C(=O)Nc1cc(Cl)ccc12 | 0 | 0 | 16.6 | 0 | 3.1 | 15.9 | 2.2 | 0 |
| Nc1ccn([C@@H]2O[C@H](CO)[C@@H](O)C2(F)F)c(=O)n1 [Gemcitabine] | 10.3 | 13.7 | 8.6 | 6.3 | 4.3 | 18.9 | 0 | 0 |
| Nc1cc(F)ccc1NC(=O)c1ccc(CNC(=O)/C=C/c2cccnc2)cc1 [Tucidinostat] | 7.2 | 5.6 | 7.7 | 5 | 5.1 | 7.8 | 1.9 | 0 |
| Clc1ccc(C(c2ccccc2Cl)C(Cl)Cl)cc1 (stereo not drawn) [Mitotane] | 0 | 0 | 0 | 0 | 0 | 0 | 1 | 0 |
| CCCCCCCCCCCCCCCCCCOP(=O)([O-])OC1CC[N+](C)(C)CC1 [Perifosine] | 0 | 0 | 0.4 | 0 | 0.2 | 0 | 0 | 0 |
